{
  "source": "patent US20140161915A1",
  "about": "“Solubilization of cucurminoid compounds and products thereof” (priority 2011, published 2014)",
  "key": {"[1]": {"experiment": "Curcumin dissolution in water (saturated), centrifuged supernatant read by UV-Vis at 405 nm", "type": "physicochemical"}, "[2]": {"test_system": "anti-Ro60 autoantibodies / Ro60 autoantigen", "experiment": "Inhibition of binding of anti-Ro60 autoantibodies to Ro60 autoantigen", "parameters": "species or system human", "details": "heat-solubilized"}, "[3]": {"details": "cited from earlier work"}, "[4]": {"test_system": "anti-spectrin / spectrin", "experiment": "Inhibition of binding of commercial polyclonal anti-spectrin to spectrin", "details": "heat-solubilized"}, "[5]": {"experiment": "Ingestion of aqueous solubilized curcumin by four adult males, reported effects", "type": "in vivo, human", "experimental": "The study conditions were as follows.\nThis subject's study was conducted in a completely blind manner: the subject was told nothing about the known or suspected properties but was merely asked to report their observations."}, "[6]": {"experiment": "Stability of dissolved curcumin: hydrolysis at alkaline pH and precipitation over time", "type": "physicochemical", "details": "pressure-dissolved (15 psi, 121° C.) solution", "experimental": "For solutions made at room temperature it is difficult to obtain a clear (i.e., solid-free) supernatant even from careful centrifuging. The samples are far more soluble in alkaline water (e.g., pH 7.6), but when placed in phosphate buffered saline (PBS) and serum-free media at modest alkaline pH (pH 7.2, at 37° C.) the curcuminoids are hydrolyzed substantially completely within 30 minutes.\nEven so, UV-Visible spectra and mass specta (from matrix assisted laser desorption […] time of flight mass spectrometry, MALDI-TOF-MS) confirmed that the dissolved curcumin was substantially unchanged by the heat treatment. Heat treatment also appears to increase the solubilization of BDMC but (curiously) not DMC.\n(§1) The autoclave cycle was 70 minutes, of which ˜40 minutes represent actual time under pressure."}, "[7]": {"test_system": "DNA", "experiment": "Binding or intercalation to DNA", "details": "heat solubilized"}, "[8]": {"experiment": "Curcumin dissolution in water (saturated), centrifuged supernatant read by UV-Vis at 405 nm", "type": "physicochemical", "experimental": "as §1\nThat mixture was then combined with 47.5 mL of deionized water to make up a 50 mL solution.", "remark": "listed apart in the source"}, "[9]": {"test_system": "4-hydroxy-2-nonenal-mediated oxidative modification of a protein substrate", "experiment": "Inhibition of 4-hydroxy-2-nonenal-mediated oxidative modification of a protein substrate", "type": "biochemical", "details": "heat-solubilized"}, "[10]": {"details": "0.1% Tween-20, room pressure, 100° C. deionized water"}, "[11]": {"details": "0.5% Tween-20, 15 psi, 121° C., deionized water"}, "[12]": {"details": "2% Tween-20, room pressure, 100° C. deionized water"}, "[13]": {"details": "15 psi, 121° C., deionized water, 5 mg/mL present"}, "[14]": {"details": "0.1% Tween-20, 15 psi, 121° C., deionized water"}, "[15]": {"details": "2% Tween-20, 15 psi, 121° C., deionized water"}},
  "data": [
    {"molecule": "COc1cc(/C=C/C(=O)CC(=O)/C=C/c2ccc(O)c(OC)c2)ccc1O", "note": "[curcumin, 1,7-bis[4-hydroxy-3-methoxyphenyl]-1,6-heptadiene-3,5-dione]", "values": [
      {"measurement": "Dissolution (Approximate) Mass/mL", "setting": "[1]; [10]", "value": 22.5, "unit": "µg/mL"},
      {"measurement": "Dissolution (Approximate) Molarity", "setting": "[1]; [10]", "value": 0.061, "unit": "mM"},
      {"measurement": "Dissolution (Approximate) Mass/mL", "setting": "[1]; [11]", "value": 278.1, "unit": "µg/mL"},
      {"measurement": "Dissolution (Approximate) Mass/mL", "setting": "[1]; 0.5% Tween-20, room pressure, 100° C. deionized water", "value": 77.44, "unit": "µg/mL"},
      {"measurement": "Dissolution (Approximate) Mass/mL", "setting": "[1]; [12]", "value": 443.52, "unit": "µg/mL"},
      {"measurement": "Dissolution (Approximate) Molarity", "setting": "[1]; [12]", "value": 1.2, "unit": "mM"},
      {"measurement": "Dissolution (Approximate) Molarity", "setting": "[1]; [13]", "value": 0.68, "unit": "mM"},
      {"measurement": "Inhibition of binding of anti-Ro60 autoantibodies to Ro60 autoantigen", "setting": "[2]; Sjögren's syndrome sera", "value": "up to 43%"},
      {"measurement": "Inhibition of binding of anti-Ro60 autoantibodies to Ro60 autoantigen", "setting": "[2]; systemic lupus erythematosus (SLE) sera", "value": "up to 52%"},
      {"measurement": "Increase in solubility by heat treatment over unheated", "setting": "[3]; Kurien et al. (2007): boiling deionized water", "value": 12, "unit": "fold"},
      {"measurement": "Solubility of curcumin itself", "setting": "[3]; deionized water at room temperature, dissolved material is DMC and BDMC", "value": "insoluble"},
      {"measurement": "Inhibition of binding of commercial polyclonal anti-spectrin to spectrin", "setting": "[4]", "value": 50, "unit": "%"},
      {"measurement": "Duration of relief from metatarsal arthritic inflammation", "setting": "[5]; Subject #3, about 100 kg, 20 mL of 350 micromolar sample (autoclave, 5% ethanol), ingested", "value": "about 48 hours"},
      {"measurement": "Effect on mood", "setting": "[5]; four adult males, 5-20 mL of 150-350 micromolar autoclaved aqueous curcumin, ingested", "value": "mood elevating effects"},
      {"measurement": "Onset of mood elevating effects", "setting": "[5]; four adult males, ingested autoclaved aqueous curcumin", "value": "almost instantaneously"},
      {"measurement": "Precipitation or turbidity of the solution over time", "setting": "[6]", "value": "did not precipitate out or cause the solution to become cloudy or turbid"},
      {"measurement": "Reduction in pristine curcumin", "setting": "[6]; alkaline pH for 72 hours", "value": 32, "unit": "%"},
      {"measurement": "Intercalation into or binding to DNA", "setting": "[7]", "value": "does not intercalate into or otherwise bind to DNA"},
      {"measurement": "Dissolution (Approximate) Mass/mL", "setting": "[8]; [14]", "value": 44.84, "unit": "µg/mL"},
      {"measurement": "Dissolution (Approximate) Molarity", "setting": "[8]; [14]", "value": 0.12, "unit": "mM"},
      {"measurement": "Dissolution (Approximate) Molarity", "setting": "[8]; [11]", "value": 0.75, "unit": "mM"},
      {"measurement": "Dissolution (Approximate) Mass/mL", "setting": "[8]; [15]", "value": 1556, "unit": "µg/mL"},
      {"measurement": "Dissolution (Approximate) Molarity", "setting": "[8]; [15]", "value": 4.2, "unit": "mM"},
      {"measurement": "Increase over curcumin dissolved at ambient temperature", "setting": "[8]; 15 psi, 121° C., 5% ethanol in deionized water", "value": "~100", "unit": "fold"},
      {"measurement": "Dissolved share of the original amount", "setting": "[8]; 15 psi, 121° C., 5% ethanol in deionized water, made up to 50 mL", "value": "about 12.9%"},
      {"measurement": "Dissolved share of the curcumin initially present", "setting": "[8]; [13]", "value": 5, "unit": "%"},
      {"measurement": "Solubilized share of starting curcumin", "setting": "[8]; autoclaved in water with 2% of a poly(alkyl ether), 50 mL starting solution", "value": 31, "unit": "%"},
      {"measurement": "Inhibition of 4-hydroxy-2-nonenal-mediated oxidative modification of a protein substrate", "setting": "[9]", "value": 80, "unit": "%"}
    ]}
  ]
}
